According to US4204038A, “Process for preparing antibiotics MA 144-M1 and MA 144-M2” (Zaidan Hojin Biseibutsu Kagaku Kenkyu Kai, priority 1976, dated 1980):
≈ marks a conversion by molar mass, not a printed value. Structures can show the parent of a compound that is named as a salt. Where two headings read alike, the source gives them in different places.

Key:
Bac. cereus ATCC 9634 = test: Minimum inhibitory concentration by the broth dilution method; assay type: cell-based; settings: Bacillus cereus
Text: (§1) (1) MA 144-M1 and MA 144-M2 have antimicrobial activity against various kinds of microorganisms.

[1] = test system: Bac. megaterium NRRL B-938; test: as above; assay type: cell-based; settings: Priestia megaterium
Text: as §1

Bac. subtilis ATCC 6633 = test: as above; assay type: cell-based; settings: Bacillus subtilis
Text: as §1

Can. albicans IAM 4905 = test: as above; assay type: cell-based; settings: Candida albicans
Text: as §1

Can. tropicalis IAM 4942 = test: as above; assay type: cell-based; settings: Candida tropicalis
Text: as §1

Cory. bovis = test: as above; assay type: cell-based; settings: Corynebacterium bovis, read-out: Minimum inhibitory concentration (MIC)
Text: as §1

Mic. flavus = test: as above; assay type: cell-based; settings: Micrococcus flavus, read-out: Minimum inhibitory concentration (MIC)
Text: as §1

[2] = test system: Mycobact. smegmatis ATCC 607; test: as above; assay type: cell-based; settings: read-out: Minimum inhibitory concentration (MIC)
Text: as §1

Proteus morganii = test: as above; assay type: cell-based; settings: Morganella morganii, read-out: Minimum inhibitory concentration (MIC)
Text: as §1

[3] = test system: Ps. fluorescens NIH JB-254; test: as above; assay type: cell-based; settings: Pseudomonas fluorescens
Text: as §1

Sarcina lutea ATCC 341 = test: as above; assay type: cell-based; settings: Micrococcus luteus
Text: as §1

Staph. aureus FDA 209P = test: as above; assay type: cell-based; settings: Staphylococcus aureus, FDA209P, read-out: Minimum inhibitory concentration (MIC)
Text: as §1

Staph. aureus Smith = test: as above; assay type: cell-based; settings: Staphylococcus aureus, read-out: Minimum inhibitory concentration (MIC)
Text: as §1

Strept. pyogenes NY 5 = test: as above; assay type: cell-based; settings: Streptococcus pyogenes
Text: as §1

L1210 = test: Therapeutic effectiveness on L1210-bearing mice; assay type: in vivo; settings: intraperitoneally, day 0 to day 10, CDF1-L1210
Experimental: (a) Therapeutic effectiveness on L1210-bearing mice
Drug was administered intraperitoneally

P388 = test: Therapeutic effectiveness on P388-bearing mice; assay type: in vivo; settings: intraperitoneally, day 1 to day 9, CDF1-P388
Experimental: (b) Therapeutic effectiveness on P388-bearing mice
Drug was administered intraperitonally

Sarcoma 180 = test: Therapeutic effectiveness on Sarcoma 180 solid tumor; assay type: in vivo, dd mice; settings: intraperitoneally, day 1 to day 10; for Weight of tumor: control 1.68
Experimental: (c) Therapeutic effectiveness on Sarcoma 180 solid tumor
dd mice were inoculated with 2×10^6 cells of Sarcoma 180, and drug was administered intraperitoneally from day 1 to day 10.

in vivo [4] = settings: Mouse
in vivo [5] = settings: Rat
L1210 cells [6] = test: Cytotoxicity: growth of cultured L1210 cells; assay type: cell-based, mice; settings: for IC50: Mus musculus, read-out: ID50, Growth; for inhibition of the growth of cultured L1210 cells: at the low concentration, in words
L1210 cells [7] = test: RNA synthesis in cultured L1210 cells; assay type: cell-based, mice; settings: for inhibition of RNA synthesis: L1210 cells, in words
Experimental: (§2) In this experiment, L1210 cells were inoculated in RPMI 1640 medium (Nissui, Roswell Park Memorial Institute 1640) containing 10% calf serum and cultivated at 37° C. for 3 days in a CO2 incubator, and MA 144-M1, MA 144-M2 and ^14 C-precursor were added at various concentrations. Effects on the synthesis of protein, RNA and DNA were indicated by the 50% inhibition concentration (μg./ml.) as shown in the following table.

gram-positive bacteria = test: Antimicrobial activity against gram-positive bacteria; assay type: cell-based; settings: in words
Text: as §1

Antitumor activity = assay type: in vivo; settings: in words
Toxicity = settings: in words
[8] = Basicity and lipophilicity
L1210 cells [9] = test: DNA synthesis in cultured L1210 cells; assay type: cell-based, mice; settings: Mus musculus, L1210, read-out: ID50, DNA synthesis
Experimental: as §2

L1210 cells [10] = test: Protein synthesis in cultured L1210 cells; assay type: cell-based, mice; settings: Mus musculus, L1210, read-out: % inhibition, Protein synthesis
Experimental: as §2

## CCC1(O)CC(OC2CC(N(C)C)C(OC3CC(O)C(OC4CCC(O)C(C)O4)C(C)O3)C(C)O2)c2c(cc3c(c2O)C(=O)c2c(O)ccc(O)c2C3=O)C1C(=O)OC (stereo not shown) [MA 144-M2]
Bac. cereus ATCC 9634; ATCC9634, Bac. cereus ATCC 9634, broth dilution, read-out: Minimum inhibitory concentration (MIC)
  MIC: 0.05 µg/mL (≈ 0.0602 µM)
[1]; NRRLB938, Bac. megaterium NRRL B-938, broth dilution, read-out: Minimum inhibitory concentration (MIC)
  MIC: 0.78 µg/mL (≈ 0.94 µM)
Bac. subtilis ATCC 6633; ATCC6633, Bac. subtilis ATCC 6633, broth dilution, read-out: Minimum inhibitory concentration (MIC)
  MIC: 0.05 µg/mL (≈ 0.0602 µM)
Can. albicans IAM 4905; IAM4905, Can. albicans IAM 4905, broth dilution, read-out: Minimum inhibitory concentration (MIC)
  MIC: 50 µg/mL (≈ 60.2 µM)
Can. tropicalis IAM 4942; IAM4942, Can. tropicalis IAM 4942, broth dilution, read-out: Minimum inhibitory concentration (MIC)
  MIC: 100 µg/mL (≈ 120 µM)
Cory. bovis; Cory. bovis, broth dilution
  MIC: 0.1 µg/mL (≈ 0.12 µM)
Mic. flavus; Mic. flavus, broth dilution
  MIC: 0.2 µg/mL (≈ 0.241 µM)
[2]; Mycobact. smegmatis ATCC 607, broth dilution
  MIC: 1.25 µg/mL (≈ 1.51 µM)
Proteus morganii; Proteus morganii (the Institute for Infectious Diseases), broth dilution
  MIC: > 100 µg/mL
[3]; NIHJB254, Ps. fluorescens NIH JB-254, broth dilution, read-out: Minimum inhibitory concentration (MIC)
  MIC: > 100 µg/mL
Sarcina lutea ATCC 341; ATCC341, Sarcina lutea ATCC 341, broth dilution, read-out: Minimum inhibitory concentration (MIC)
  MIC: 0.05 µg/mL (≈ 0.0602 µM)
Staph. aureus FDA 209P; Staph. aureus FDA 209P, broth dilution
  MIC: 0.78 µg/mL (≈ 0.94 µM)
Staph. aureus Smith; Staph. aureus Smith, broth dilution
  MIC: 0.1 µg/mL (≈ 0.12 µM)
Strept. pyogenes NY 5; NY5, Strept. pyogenes NY 5, broth dilution, read-out: Minimum inhibitory concentration (MIC)
  MIC: 0.63 µg/mL (≈ 0.759 µM)
L1210; 0.156 mg/kg/day
  Prolongation of the survival time: 116%
L1210; 0.313 mg/kg/day
  Prolongation of the survival time: 144%
L1210; 0.625 mg/kg/day
  Prolongation of the survival time: 192%
L1210; 1.25 mg/kg/day
  Prolongation of the survival time: 200%
L1210; 2.5 mg/kg/day
  Prolongation of the survival time: 85%
L1210; 5 mg/kg/day
  Prolongation of the survival time: 46%
P388; 0.313 mg/kg/day
  Prolongation of the survival time: 125%
P388; 0.625 mg/kg/day
  Prolongation of the survival time: 148%
P388; 1.25 mg/kg/day
  Prolongation of the survival time: 206%
P388; 2.5 mg/kg/day
  Prolongation of the survival time: 83%
P388; 5 mg/kg/day
  Prolongation of the survival time: 57%
Sarcoma 180; 0.3 mg/kg/day
  % Inhibition of tumor growth: 16%
  Weight of tumor: 1.41 g
Sarcoma 180; 0.6 mg/kg/day
  % Inhibition of tumor growth: 46.5%
  Weight of tumor: 0.90 g
Sarcoma 180; 1.25 mg/kg/day
  % Inhibition of tumor growth: 76.8%
  Weight of tumor: 0.39 g
Sarcoma 180; 2.5 mg/kg/day
  % Inhibition of tumor growth: 83.3%
  Weight of tumor: 0.28 g
Sarcoma 180; 5 mg/kg/day
  Weight of tumor: toxic
In vivo [4]; ip
  LD50: 12.5 mg/kg
In vivo [4]; iv
  LD50: 12 to 20 mg/kg
In vivo [5]; ip
  LD50: 10 to 15 mg/kg
In vivo [5]; iv
  LD50: 10 to 15 mg/kg
L1210 cells [6]; 72 h, cultured L1210 cells, 37° C., 3 days
  IC50: 0.05 µg/mL (≈ 0.0602 µM)
L1210 cells [6]
  inhibition of the growth of cultured L1210 cells: inhibited markedly
L1210 cells [7]
  inhibition of RNA synthesis: completely inhibited RNA synthesis
gram-positive bacteria
  antimicrobial activity against gram-positive bacteria: show antimicrobial activity against gram-positive bacteria
Antitumor activity
  antitumor activity: marked antitumor activity
Toxicity
  toxicity: low toxicity
[8]
  basicity: Weakly basic

## CCC1(O)CC(OC2CC(N(C)C)C(OC3CC(O)C(OC4CCC(O)C(C)O4)C(C)O3)C(C)O2)c2c(cc3c(c2O)C(=O)c2c(O)cccc2C3=O)C1C(=O)OC (stereo not shown) [MA 144-M1 hydrochloride salt]
Solubility
  solubility: slightly soluble in: slightly soluble in acetone and ethyl acetate
  solubility: soluble in: soluble in water, methanol and chloroform

## CCC1(O)CC(OC2CC(N(C)C)C(OC3CC(O)C(OC4CCC(O)C(C)O4)C(C)O3)C(C)O2)c2c(cc3c(c2O)C(=O)c2c(O)cccc2C3=O)C1C(=O)OC (stereo not shown) [MA 144-M1]
Bac. cereus ATCC 9634; ATCC9634, read-out: Minimum inhibitory concentration (MIC)
  MIC: 0.78 µg/mL (≈ 0.958 µM)
[1]; NRRLB938, read-out: Minimum inhibitory concentration (MIC)
  MIC: 3.1 µg/mL (≈ 3.81 µM)
Bac. subtilis ATCC 6633; ATCC6633, read-out: Minimum inhibitory concentration (MIC)
  MIC: 0.4 µg/mL (≈ 0.491 µM)
Can. albicans IAM 4905; IAM4905, read-out: Minimum inhibitory concentration (MIC)
  MIC: 100 µg/mL (≈ 123 µM)
Can. tropicalis IAM 4942; IAM4942, read-out: Minimum inhibitory concentration (MIC)
  MIC: > 100 µg/mL
Cory. bovis
  MIC: 0.4 µg/mL (≈ 0.491 µM)
Mic. flavus
  MIC: 0.2 µg/mL (≈ 0.246 µM)
[2]
  MIC: 2.5 µg/mL (≈ 3.07 µM)
Proteus morganii
  MIC: > 100 µg/mL
[3]; NIHJB254, read-out: Minimum inhibitory concentration (MIC)
  MIC: > 100 µg/mL
Sarcina lutea ATCC 341; ATCC341, read-out: Minimum inhibitory concentration (MIC)
  MIC: 0.05 µg/mL (≈ 0.0614 µM)
Staph. aureus FDA 209P
  MIC: 3.1 µg/mL (≈ 3.81 µM)
Staph. aureus Smith
  MIC: 0.2 µg/mL (≈ 0.246 µM)
Strept. pyogenes NY 5; NY5, read-out: Minimum inhibitory concentration (MIC)
  MIC: 1.25 µg/mL (≈ 1.54 µM)
L1210; 0.156 mg/kg/day
  Prolongation of the survival time: 110%
L1210; 0.313 mg/kg/day
  Prolongation of the survival time: 110%
L1210; 0.625 mg/kg/day
  Prolongation of the survival time: 123%
L1210; 1.25 mg/kg/day
  Prolongation of the survival time: 137%
L1210; 2.5 mg/kg/day
  Prolongation of the survival time: 192%
L1210; 5 mg/kg/day
  Prolongation of the survival time: 200%
L1210; 10 mg/kg/day
  Prolongation of the survival time: 90%
P388; 0.313 mg/kg/day
  Prolongation of the survival time: 110%
P388; 0.625 mg/kg/day
  Prolongation of the survival time: 135%
P388; 1.25 mg/kg/day
  Prolongation of the survival time: 149%
P388; 2.5 mg/kg/day
  Prolongation of the survival time: 184%
P388; 5 mg/kg/day
  Prolongation of the survival time: 100%
Sarcoma 180; 0.3 mg/kg/day
  % Inhibition of tumor growth: 25.5%
  Weight of tumor: 1.25 g
Sarcoma 180; 0.6 mg/kg/day
  % Inhibition of tumor growth: 53.7%
  Weight of tumor: 0.78 g
Sarcoma 180; 1.25 mg/kg/day
  % Inhibition of tumor growth: 51.9%
  Weight of tumor: 0.81 g
Sarcoma 180; 2.5 mg/kg/day
  % Inhibition of tumor growth: 61.3%
  Weight of tumor: 0.65 g
Sarcoma 180; 5 mg/kg/day
  % Inhibition of tumor growth: 77.4%
  Weight of tumor: 0.38 g
In vivo [4]; ip
  LD50: 35 mg/kg
In vivo [4]; iv
  LD50: 30 to 35 mg/kg
In vivo [5]; ip
  LD50: 25 to 30 mg/kg
In vivo [5]; iv
  LD50: 25 to 30 mg/kg
L1210 cells [6]; L1210, 72 h
  IC50: 0.12 µg/mL (≈ 0.147 µM)
L1210 cells [6]
  inhibition of the growth of cultured L1210 cells: inhibited markedly
L1210 cells [9]
  IC50: 1.7 µg/mL (≈ 2.09 µM)
L1210 cells [7]
  inhibition of RNA synthesis: completely inhibited RNA synthesis
L1210 cells [7]; Mus musculus, L1210, read-out: ID50, RNA synthesis
  IC50: 0.7 µg/mL (≈ 0.86 µM)
L1210 cells [10]
  inhibition at 10 µg/mL: 10%
gram-positive bacteria
  antimicrobial activity against gram-positive bacteria: show antimicrobial activity against gram-positive bacteria
Antitumor activity
  antitumor activity: marked antitumor activity
Toxicity
  toxicity: low toxicity
Solubility
  solubility: slightly soluble in: slightly soluble in water, diethyl ether and n-hexane
  solubility: soluble in: soluble in acidic water, dimethyl sulfoxide, methylcellosolve, methanol, ethanol, ethyl acetate, acetone, chloroform, benzene, toluene
[8]
  basicity: Weakly basic
  lipophilicity: lipophilic
